{"source": "patent US20120289565A1", "about": "“COMBINATIONS OF TOLTERODINE AND SALIVARY STIMULANTS FOR THE TREATMENT OF OVERACTIVE BLADDER” (TheraVida, Inc., priority 2011, published 2012)", "origin": "cited, not measured here", "details": "5 mg of pilocarpine"}
{"smiles": "CC[C@@H]1C(=O)OC[C@@H]1Cc1cncn1C", "note": "[pilocarpine]", "values": [{"measurement": "time of maximum saliva output after administration", "result": "about 30 minutes"}]}
